The subject of this assay is human TLR4. In words: TLR4 activation, HEK-Blue hTLR4 SEAP reporter cells. It is filed as cell-based. The note with it: 24 h, SEAP production. The method, then:
The HEK-Blue hTLR4 cells were used for these experiments as previously described. Cells were cultured in complete growth medium: phenol red-free DMEM high glucose medium supplemented with 1 mM sodium pyruvate, 10% heat-inactivated FBS, 50 U/mL penicillin, 50 μg/mL streptomycin, 1X Glutamax, 100 μg/mL Normocin, and 1X HEK-Blue Selection. All stimulation assays were performed on cells that were passaged 3 to 15 times. Cells were carefully rinsed once with ice-cold PBS to remove residual FBS. Then, 2 mL of pre-warmed PBS was added, and dishes were incubated at 37 °C for 5 min to promote cell detachment. Cells were fully detached from plates with gentle tapping, collected, and centrifuged at 52× g for 5 min. […] In another set of experiments, we determined the effects of peptide candidates on the activation of hTLR4 by S100A9. […] Secreted alkaline phosphatase (SEAP) production was measured in each challenged well by transferring 20 μL of medium to a fresh 96-well plate containing 200 μL of Quanti-Blue detection medium. […] The Quanti-Blue plate was developed at 37 °C, 5% CO2, for 3 h followed by OD recordings at 630 nm using the Synergy2 microplate reader and Gen5 software. […]
Figure 6 TLR4 activation by S100A9 and effects of peptide candidates. (A) SEAP production was measured in cell medium following 24 h incubation with indicated concentrations of ligands. […]

Take “S100A9: Recombinant human calcium binding protein S100A9 (C-terminus 8-His tag); known agonist of TLR4, positive control”: the “concentration giving maximum receptor stimulation” value came out at 50 nM. Also, where the note is “read-out: half maximal effective concentration (EC50) for TLR4 activation”, the EC50 was determined as 0.7 nM.

For the origin of these results see publication PMC9599826, “Selecting Multitarget Peptides for Alzheimer’s Disease” (Biomolecules, 2022).
